In general, stoichiometry N refers to the number of molecules, sites or subunits per partner or assembly.

The values below come from paper PMC9303275, “Direct adenylation from 5′-OH-terminated oligonucleotides by a fusion enzyme containing Pfu RNA ligase and T4 polynucleotide kinase” (Nucleic Acids Research, 2022).

One data set deals with T1, Pfu RNA ligase (Pfu Rnl) (Pyrococcus furiosus, UniProt Q8U3V2).
T1 construct: gene PF0353; full length, 379 aa, N-terminal 8xHis tag (not reported cut), codon optimised, pET28a, E. coli BL21(DE3), ~42 kDa, mainly homodimer
T1 sequence (Q8U3V2 1-379): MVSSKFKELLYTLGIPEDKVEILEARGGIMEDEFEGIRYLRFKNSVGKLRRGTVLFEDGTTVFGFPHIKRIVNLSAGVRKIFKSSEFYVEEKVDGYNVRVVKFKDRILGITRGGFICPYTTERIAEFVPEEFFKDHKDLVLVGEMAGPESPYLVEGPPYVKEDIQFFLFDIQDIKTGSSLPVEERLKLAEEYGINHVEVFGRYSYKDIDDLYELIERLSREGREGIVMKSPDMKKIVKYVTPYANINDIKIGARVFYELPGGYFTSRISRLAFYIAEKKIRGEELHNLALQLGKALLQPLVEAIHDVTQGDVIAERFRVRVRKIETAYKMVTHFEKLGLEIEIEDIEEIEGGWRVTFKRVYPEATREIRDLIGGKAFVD
The experiment in a line: oligonucleotide adenylation, denaturing urea-PAGE, SYBR Gold. Format: biochemical.

Another data set has as its target T2, Mth RNA ligase (Mth Rnl) (Methanothermobacter thermautotrophicus, UniProt O27289).
T2 construct: gene MTH_1221; commercial enzyme (New England Biolabs, 5' DNA adenylation kit)
T2 sequence (O27289 1-381): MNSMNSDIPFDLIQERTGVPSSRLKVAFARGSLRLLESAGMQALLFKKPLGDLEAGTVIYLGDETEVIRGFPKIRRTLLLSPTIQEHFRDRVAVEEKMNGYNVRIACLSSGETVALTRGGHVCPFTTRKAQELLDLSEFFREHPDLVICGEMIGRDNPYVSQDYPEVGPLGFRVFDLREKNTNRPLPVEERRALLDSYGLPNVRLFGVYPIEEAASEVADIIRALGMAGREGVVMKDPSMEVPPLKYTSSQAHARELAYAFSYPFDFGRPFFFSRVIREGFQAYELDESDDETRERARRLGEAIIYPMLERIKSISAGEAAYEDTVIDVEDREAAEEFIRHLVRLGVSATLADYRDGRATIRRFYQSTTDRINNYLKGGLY
The data set can be described thus: oligonucleotide adenylation, denaturing urea-PAGE. Format: biochemical. Conditions: 5'-phosphorylated 55-nt ssDNA; commercial kit protocol.

Data set [1] concerns the molecule itself. The data set can be described thus: SEC; gel filtration on HiLoad 26/600 Superdex 200 pg, 50 mM phosphate, 150 mM NaCl, pH 7.0, 2.6 ml/min; elution volumes compared with molecular weight standards; each protein loaded separately.

`Nc1ncnc2c1ncn2[C@@H]1O[C@H](COP(=O)(O)OP(=O)(O)O)[C@@H](O)[C@H]1O` [ADP]: the “oligonucleotide adenylation, denaturing urea-PAGE, SYBR Gold” value on Pfu RNA ligase (Pfu Rnl) (5'-phosphorylated 17-nt and 55-nt ssDNA, 5 mM MgCl2, 70 mM Tris-HCl pH 7.0, 80 °C, weak activity) is “weak catalytic activity with ADP and almost no catalytic activity with AMP”.

With `Nc1ncnc2c1ncn2[C@@H]1O[C@H](COP(=O)(O)OP(=O)(O)OP(=O)(O)O)[C@@H](O)[C@H]1O` [ATP], the “oligonucleotide adenylation, denaturing urea-PAGE” value at Mth RNA ligase (Mth Rnl) is recorded as “As expected, both enzymes achieved near complete conversion”. Besides, the “oligonucleotide adenylation, denaturing urea-PAGE, SYBR Gold” value on Pfu RNA ligase (Pfu Rnl) (5'-phosphorylated ssDNA, 5 mM MgCl2, 70 mM Tris-HCl pH 7.0, 5 mM DTT, 80 °C, 30 min) is listed as “Pfu Rnl showed the best activity with ATP as the adenosyl source”.

B1: Pfu RNA ligase (enzyme, Pyrococcus furiosus, UniProt Q8U3V2 1-379, looked up)
chain: T1 sequence (Q8U3V2 1-379)
notes: Pfu RNA ligase (Pfu Rnl) of Pyrococcus furiosus, encoded by the PF0353 gene, 379 amino acids, full length; No tag removal is described; also called Pfu Rnl; Q8U3V2 protein; source: E. coli BL21(DE3), purified (HisTrap FF, HiTrap Heparin HP)
As for B1, in data set [1], the “stoichiometry N” value was found to be 2.
